Experimental data as given in patent US10533010B2, “Substituted indole Mcl-1 inhibitors” (Vanderbilt University, priority 2014, dated 2020).
Like-named read-outs stand apart in the source and are kept apart here.

Target: recombinant Mcl-1 (residues 172-327) (Homo sapiens (Human), UniProt Q07820)
Experiment: Fluorescence polarization anisotropy competition assay (FITC-Bak or FITC-Bim BH3 peptide) with Mcl-1
Type: binding
[1] = Table 2, Ki bins given in nM, FITC-Bak or FITC-Bim peptide competition, Ki converted from IC50, read-out: Ki for Inhibition of Mcl-1
[2] = Table 2, Ki bins given in μM, FITC-Bak or FITC-Bim peptide competition, Ki converted from IC50, read-out: Ki for Inhibition of Mcl-1

Sequence of recombinant Mcl-1 (residues 172-327) (Q07820 172-327): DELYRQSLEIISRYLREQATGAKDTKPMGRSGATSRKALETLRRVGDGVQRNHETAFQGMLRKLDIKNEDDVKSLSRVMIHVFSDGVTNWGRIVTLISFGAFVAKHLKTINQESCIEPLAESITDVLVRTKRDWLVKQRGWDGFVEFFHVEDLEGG

| Compound | Ki [1] [nM] | other results |
| --- | --- | --- |
| Cc1cc(OCCCc2c3n(c4c(-c5c(C)nn(C)c5C)c(Cl)ccc24)CCCN(c2cc(C(=O)O)cc(-c4cccnc4C)c2)C3=O)cc(C)c1Cl [I-232, 3-(8-chloro-11-(3-(4-chloro-3,5-dimethylphenoxy)propyl)-1-oxo-7-(1,3,5-trimethyl-1H-pyrazol-4-yl)-4,5-dihydro-1H-[1,4]diazepino[1,2-a]indol-2(3H)-yl)-5-(2-methylpyridin-3-yl)benzoic acid] | < 50 |  |
| Cc1cc(OCCCc2c(C(=O)Nc3cccc(C(=O)O)c3)[nH]c3c(-c4cccnc4C)cccc23)cc(C)c1Cl [I-36, 3-(3-(3-(4-chloro-3,5-dimethylphenoxy)propyl)-7-(2-methylpyridin-3-yl)-1H-indole-2-carboxamido)benzoic acid] | < 50 |  |
| Cc1cc(OCCCc2c(C(=O)NCc3cc(C(=O)O)n(Cc4ccccc4)c3)[nH]c3c(-c4c(C)nn(C)c4C)cccc23)cc(C)c1Cl [I-75, 1-benzyl-4-((3-(3-(4-chloro-3,5-dimethylphenoxy)propyl)-7-(1,3,5-trimethyl-1H-pyrazol-4-yl)-1H-indole-2-carboxamido)methyl)-1H-pyrrole-2-carboxylic acid] | 51 to 100 |  |
| Cc1cc(OCCCc2c(C(=O)NCCC(=O)NS(=O)(=O)c3ccc(Oc4ccccc4)cc3)[nH]c3ccccc23)cc(C)c1Cl [I-17, 3-(3-(4-chloro-3,5-dimethylphenoxy)propyl)-N-(3-oxo-3-((4-phenoxyphenyl)sulfonamido)propyl)-1H-indole-2-carboxamide] | 101 to 299 |  |
| Cc1cc(OCCCc2c3n(c4c(-c5c(C)nn(C)c5C)c(Cl)ccc24)CCCN(c2ncc(C(=O)O)s2)C3=O)cc(C)c1Cl [I-358, 2-(8-chloro-11-(3-(4-chloro-3,5-dimethylphenoxy)propyl)-1-oxo-7-(1,3,5-trimethyl-1H-pyrazol-4-yl)-4,5-dihydro-1H-[1,4]diazepino[1,2-a]indol-2(3H)-yl)thiazole-5-carboxylic acid] | < 50 |  |
| Cc1cc(OCCCc2c3n(c4c(-c5c(C)nn(C)c5C)c(Cl)ccc24)CCCN(c2ccc(C(=O)O)cc2F)C3=O)cc(C)c1Cl [I-95, 4-(8-chloro-11-(3-(4-chloro-3,5-dimethylphenoxy)propyl)-1-oxo-7-(1,3,5-trimethyl-1H-pyrazol-4-yl)-4,5-dihydro-1H-[1,4]diazepino[1,2-a]indol-2(3H)-yl)-3-fluorobenzoic acid] | < 50 |  |
| Cc1cc(OCCCc2c(C(=O)NCc3cc(C(=O)NCc4ccccc4)c(C)o3)[nH]c3c(-c4c(C)nn(C)c4C)cccc23)cc(C)c1Cl [I-275, N-((4-(benzylcarbamoyl)-5-methylfuran-2-yl)methyl)-3-(3-(4-chloro-3,5-dimethylphenoxy)propyl)-7-(1,3,5-trimethyl-1H-pyrazol-4-yl)-1H-indole-2-carboxamide] |  | Ki [2]: 1000 to 9990 nM |
| Cc1cc(OCCCc2c3n(c4c(-c5c(C)nn(C)c5C)c(Cl)ccc24)CCCN(Cc2cc(CCNC(=O)CC(C)C)cc(C(=O)O)c2)C3=O)cc(C)c1Cl [I-307, 3-((8-chloro-11-(3-(4-chloro-3,5-dimethylphenoxy)propyl)-1-oxo-7-(1,3,5-trimethyl-1H-pyrazol-4-yl)-4,5-dihydro-1H-[1,4]diazepino[1,2-a]indol-2(3H)-yl)methyl)-5-(2-(3-methylbutanamido)ethyl)benzoic acid] | < 50 |  |
| Cc1cc(OCCCc2c3n(c4c(-c5c(C)nn(C)c5C)c(Cl)ccc24)CCCN(CC(=O)O)C3=O)cc(C)c1Cl [I-304, 2-(8-chloro-11-(3-(4-chloro-3,5-dimethylphenoxy)propyl)-1-oxo-7-(1,3,5-trimethyl-1H-pyrazol-4-yl)-4,5-dihydro-1H-[1,4]diazepino[1,2-a]indol-2(3H)-yl)acetic acid] | < 50 |  |
| Cc1cc(OCCCc2c3n(c4c(-c5c(C)nn(C)c5C)c(Cl)ccc24)CCCN(CC(=O)N[C@@H](Cc2ccccc2)C(=O)O)C3=O)cc(C)c1Cl [I-305, (2-(8-chloro-11-(3-(4-chloro-3,5-dimethylphenoxy)propyl)-1-oxo-7-(1,3,5-trimethyl-1H-pyrazol-4-yl)-4,5-dihydro-1H-[1,4]diazepino[1,2-a]indol-2(3H)-yl)acetyl)-L-phenylalanine] | < 50 |  |
| Cc1cc(OCCCc2c(C(=O)NCc3cccc(C(=O)NS(=O)(=O)c4ccccc4C#N)c3)[nH]c3c(-c4c(CN5CCCC5)nn(C)c4C)cccc23)cc(C)c1Cl [I-35, 3-(3-(4-chloro-3,5-dimethylphenoxy)propyl)-N-(3-(((2-cyanophenyl)sulfonyl)carbamoyl)benzyl)-7-(1,5-dimethyl-3-(pyrrolidin-1-ylmethyl)-1H-pyrazol-4-yl)-1H-indole-2-carboxamide] | < 50 |  |
| Cc1cc(OCCCc2c3n(c4c(-c5c(C)nn(C)c5C)c(Cl)ccc24)[C@@H](C)CN(c2cccc(C(=O)O)c2)C3=O)cc(C)c1Cl [I-165, (S)-3-(7-chloro-10-(3-(4-chloro-3,5-dimethylphenoxy)propyl)-4-methyl-1-oxo-6-(1,3,5-trimethyl-1H-pyrazol-4-yl)-3,4-dihydropyrazino[1,2-a]indol-2(1H)-yl)benzoic acid] | < 50 |  |
| Cc1cc(OCCCc2c(C(=O)NCCc3c(C)n(C)c4ccccc34)[nH]c3ccccc23)cc(C)c1Cl [I-44, 3-(3-(4-chloro-3,5-dimethylphenoxy)propyl)-N-(2-(1,2-dimethyl-1H-indol-3-yl)ethyl)-1H-indole-2-carboxamide] |  | Ki [2]: 1000 to 9990 nM |
| Cc1cc(OCCCc2c(C(=O)NCc3cc(C(=O)O)cc(N4CCN(CCC(C)C)CC4)n3)[nH]c3c(-c4c(C)nn(C)c4C)c(Cl)ccc23)cc(C)c1Cl [I-285, 2-((6-chloro-3-(3-(4-chloro-3,5-dimethylphenoxy)propyl)-7-(1,3,5-trimethyl-1H-pyrazol-4-yl)-1H-indole-2-carboxamido)methyl)-6-(4-isopentylpiperazin-1-yl)isonicotinic acid] | < 50 |  |
| Cc1cc(OCCCc2c3n(c4c(-c5c(C)nn(C)c5C)c(Cl)ccc24)CCCN(Cc2cc(Br)cc(C(=O)O)c2)C3=O)cc(C)c1Cl [I-299, 3-bromo-5-((8-chloro-11-(3-(4-chloro-3,5-dimethylphenoxy)propyl)-1-oxo-7-(1,3,5-trimethyl-1H-pyrazol-4-yl)-4,5-dihydro-1H-[1,4]diazepino[1,2-a]indol-2(3H)-yl)methyl)benzoic acid] | < 50 |  |
| Cc1cc(OCCCc2c3n(c4c(-c5c(C)nn(C)c5C)cc(Cl)cc24)CCCN(c2cccc(C(=O)O)c2)C3=O)cc(C)c1Cl [I-246, 3-(9-chloro-11-(3-(4-chloro-3,5-dimethylphenoxy)propyl)-1-oxo-7-(1,3,5-trimethyl-1H-pyrazol-4-yl)-4,5-dihydro-1H-[1,4]diazepino[1,2-a]indol-2(3H)-yl)benzoic acid] | 101 to 299 |  |
| Cc1cc(OCCCc2c(C(=O)N[C@@H]3CCCN(C(=O)C(=O)O)C3)[nH]c3c(-c4c(C)nn(C)c4C)c(Cl)ccc23)cc(C)c1Cl [I-327, (R)-2-(3-(6-chloro-3-(3-(4-chloro-3,5-dimethylphenoxy)propyl)-7-(1,3,5-trimethyl-1H-pyrazol-4-yl)-1H-indole-2-carboxamido)piperidin-1-yl)-2-oxoacetic acid] | < 50 |  |
| Cc1cc(OCCCc2c(C(=O)NCc3ccnc(N4CCc5ccccc5C4)c3)[nH]c3c(-c4c(C)nn(C)c4C)cccc23)cc(C)c1Cl [I-263, 3-(3-(4-chloro-3,5-dimethylphenoxy)propyl)-N-((2-(3,4-dihydroisoquinolin-2(1H)-yl)pyridin-4-yl)methyl)-7-(1,3,5-trimethyl-1H-pyrazol-4-yl)-1H-indole-2-carboxamide] | 301 to 500 |  |
| Cc1cc(OCCCc2c(C(=O)N[C@@H]3CCN(C(=O)C(=O)O)C3)[nH]c3c(-c4c(C)nn(C)c4C)c(Cl)ccc23)cc(C)c1Cl [I-326, (R)-2-(3-(6-chloro-3-(3-(4-chloro-3,5-dimethylphenoxy)propyl)-7-(1,3,5-trimethyl-1H-pyrazol-4-yl)-1H-indole-2-carboxamido)pyrrolidin-1-yl)-2-oxoacetic acid] | < 50 |  |
| Cc1cc(OCCCc2c(C(=O)NCC(=O)NS(=O)(=O)c3cccnc3)[nH]c3ccccc23)cc(C)c1Cl [I-6, 3-(3-(4-chloro-3,5-dimethylphenoxy)propyl)-N-(2-oxo-2-(pyridine-3-sulfonamido)ethyl)-1H-indole-2-carboxamide] | 301 to 500 |  |
| Cc1cc(OCCCc2c3n(c4c(-c5c(C)nn(C)c5C)c(Cl)ccc24)CCCN(c2ccc(-c4nn[nH]n4)cc2)C3=O)cc(C)c1Cl [I-357, 2-(4-(2H-tetrazol-5-yl)phenyl)-8-chloro-1-(3-(4-chloro-3,5-dimethylphenoxy)propyl)-7-(1,3,5-trimethyl-1H-pyrazol-4-yl)-2,3,4,5-tetrahydro-1H-[1,4]diazepino[1,2-a]indol-1-one] | < 50 |  |
| Cc1cc(OCCCc2c3n(c4c(-c5c(C)nn(C)c5C)cc(Cl)cc24)CCCN(c2cc(C(=O)O)cc4c2ccn4C)C3=O)cc(C)c1Cl [I-245, 4-(9-chloro-11-(3-(4-chloro-3,5-dimethylphenoxy)propyl)-1-oxo-7-(1,3,5-trimethyl-1H-pyrazol-4-yl)-4,5-dihydro-1H-[1,4]diazepino[1,2-a]indol-2(3H)-yl)-1-methyl-1H-indole-6-carboxylic acid] |  | Ki: 101 to 299 nM |
| Cc1cc(OCCCc2c3n(c4c(-c5c(C)nn(C)c5C)c(Cl)ccc24)[C@@H](C)CN(Cc2ccc(C(=O)O)o2)C3=O)cc(C)c1Cl [I-148, (S)-5-((7-chloro-10-(3-(4-chloro-3,5-dimethylphenoxy)propyl)-4-methyl-1-oxo-6-(1,3,5-trimethyl-1H-pyrazol-4-yl)-3,4-dihydropyrazino[1,2-a]indol-2(1H)-yl)methyl)furan-2-carboxylic acid] | < 50 |  |
| Cc1cc(OCCCc2c3n(c4c(-c5c(C)nn(C)c5C)c(Cl)ccc24)CCCN(c2cc(C(=O)O)cc4c2ncn4C)C3=O)cc(C)c1Cl [I-365, 4-(8-chloro-11-(3-(4-chloro-3,5-dimethylphenoxy)propyl)-1-oxo-7-(1,3,5-trimethyl-1H-pyrazol-4-yl)-4,5-dihydro-1H-[1,4]diazepino[1,2-a]indol-2(3H)-yl)-1-methyl-1H-benzo[d]imidazole-6-carboxylic acid] | < 50 |  |
